Assays:
[1] = target: Receptor-type tyrosine-protein phosphatase F (Homo sapiens) (UniProt P10586); experiment: Percent inhibition of Protein-tyrosine phosphatase Lar assayed at 100 uM
[2] = target: T1, Tyrosine-protein phosphatase non-receptor type 1 (Rattus norvegicus) (UniProt P20417); experiment: Percent inhibition of Protein-tyrosine phosphatase 1 (PTP) assayed at 100 uM
T1 sequence (whole entry): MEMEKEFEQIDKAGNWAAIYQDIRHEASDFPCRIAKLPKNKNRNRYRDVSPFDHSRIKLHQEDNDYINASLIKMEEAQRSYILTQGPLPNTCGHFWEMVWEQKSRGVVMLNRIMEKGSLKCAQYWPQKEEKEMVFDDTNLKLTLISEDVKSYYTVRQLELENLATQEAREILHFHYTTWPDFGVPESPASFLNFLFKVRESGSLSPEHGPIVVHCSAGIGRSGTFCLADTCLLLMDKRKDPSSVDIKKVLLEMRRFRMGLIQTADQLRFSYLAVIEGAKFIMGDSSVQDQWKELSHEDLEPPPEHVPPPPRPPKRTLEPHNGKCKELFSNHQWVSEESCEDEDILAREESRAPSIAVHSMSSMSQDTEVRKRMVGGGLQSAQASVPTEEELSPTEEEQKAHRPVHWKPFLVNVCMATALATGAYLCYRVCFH

[3] = target: T2, Tyrosine-protein phosphatase non-receptor type 11 (Mus musculus) (UniProt P35235); experiment: Percent inhibition of Tyrosine phosphatase SHP2 SH2 domain containing PTP involved in insulin uM; set-up: concentration or dose not given beside the values; settings: concentration not given here
T2 sequence (whole entry): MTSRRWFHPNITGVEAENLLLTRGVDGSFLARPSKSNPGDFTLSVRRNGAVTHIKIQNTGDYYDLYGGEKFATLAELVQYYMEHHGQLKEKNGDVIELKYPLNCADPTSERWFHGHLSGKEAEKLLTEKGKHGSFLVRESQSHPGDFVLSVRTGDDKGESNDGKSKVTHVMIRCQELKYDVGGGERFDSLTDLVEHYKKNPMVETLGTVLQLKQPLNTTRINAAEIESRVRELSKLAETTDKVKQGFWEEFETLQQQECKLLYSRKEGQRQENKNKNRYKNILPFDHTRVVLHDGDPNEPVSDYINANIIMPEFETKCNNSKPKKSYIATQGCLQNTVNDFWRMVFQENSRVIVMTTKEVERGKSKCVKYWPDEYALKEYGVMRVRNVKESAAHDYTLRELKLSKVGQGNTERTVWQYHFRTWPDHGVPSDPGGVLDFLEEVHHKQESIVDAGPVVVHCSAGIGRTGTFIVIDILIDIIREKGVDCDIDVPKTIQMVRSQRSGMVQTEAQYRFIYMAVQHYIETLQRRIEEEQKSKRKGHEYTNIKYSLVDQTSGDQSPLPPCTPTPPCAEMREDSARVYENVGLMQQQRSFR

Receptor-type tyrosine-protein phosphatase F (Homo sapiens), sequence (P10586 whole entry): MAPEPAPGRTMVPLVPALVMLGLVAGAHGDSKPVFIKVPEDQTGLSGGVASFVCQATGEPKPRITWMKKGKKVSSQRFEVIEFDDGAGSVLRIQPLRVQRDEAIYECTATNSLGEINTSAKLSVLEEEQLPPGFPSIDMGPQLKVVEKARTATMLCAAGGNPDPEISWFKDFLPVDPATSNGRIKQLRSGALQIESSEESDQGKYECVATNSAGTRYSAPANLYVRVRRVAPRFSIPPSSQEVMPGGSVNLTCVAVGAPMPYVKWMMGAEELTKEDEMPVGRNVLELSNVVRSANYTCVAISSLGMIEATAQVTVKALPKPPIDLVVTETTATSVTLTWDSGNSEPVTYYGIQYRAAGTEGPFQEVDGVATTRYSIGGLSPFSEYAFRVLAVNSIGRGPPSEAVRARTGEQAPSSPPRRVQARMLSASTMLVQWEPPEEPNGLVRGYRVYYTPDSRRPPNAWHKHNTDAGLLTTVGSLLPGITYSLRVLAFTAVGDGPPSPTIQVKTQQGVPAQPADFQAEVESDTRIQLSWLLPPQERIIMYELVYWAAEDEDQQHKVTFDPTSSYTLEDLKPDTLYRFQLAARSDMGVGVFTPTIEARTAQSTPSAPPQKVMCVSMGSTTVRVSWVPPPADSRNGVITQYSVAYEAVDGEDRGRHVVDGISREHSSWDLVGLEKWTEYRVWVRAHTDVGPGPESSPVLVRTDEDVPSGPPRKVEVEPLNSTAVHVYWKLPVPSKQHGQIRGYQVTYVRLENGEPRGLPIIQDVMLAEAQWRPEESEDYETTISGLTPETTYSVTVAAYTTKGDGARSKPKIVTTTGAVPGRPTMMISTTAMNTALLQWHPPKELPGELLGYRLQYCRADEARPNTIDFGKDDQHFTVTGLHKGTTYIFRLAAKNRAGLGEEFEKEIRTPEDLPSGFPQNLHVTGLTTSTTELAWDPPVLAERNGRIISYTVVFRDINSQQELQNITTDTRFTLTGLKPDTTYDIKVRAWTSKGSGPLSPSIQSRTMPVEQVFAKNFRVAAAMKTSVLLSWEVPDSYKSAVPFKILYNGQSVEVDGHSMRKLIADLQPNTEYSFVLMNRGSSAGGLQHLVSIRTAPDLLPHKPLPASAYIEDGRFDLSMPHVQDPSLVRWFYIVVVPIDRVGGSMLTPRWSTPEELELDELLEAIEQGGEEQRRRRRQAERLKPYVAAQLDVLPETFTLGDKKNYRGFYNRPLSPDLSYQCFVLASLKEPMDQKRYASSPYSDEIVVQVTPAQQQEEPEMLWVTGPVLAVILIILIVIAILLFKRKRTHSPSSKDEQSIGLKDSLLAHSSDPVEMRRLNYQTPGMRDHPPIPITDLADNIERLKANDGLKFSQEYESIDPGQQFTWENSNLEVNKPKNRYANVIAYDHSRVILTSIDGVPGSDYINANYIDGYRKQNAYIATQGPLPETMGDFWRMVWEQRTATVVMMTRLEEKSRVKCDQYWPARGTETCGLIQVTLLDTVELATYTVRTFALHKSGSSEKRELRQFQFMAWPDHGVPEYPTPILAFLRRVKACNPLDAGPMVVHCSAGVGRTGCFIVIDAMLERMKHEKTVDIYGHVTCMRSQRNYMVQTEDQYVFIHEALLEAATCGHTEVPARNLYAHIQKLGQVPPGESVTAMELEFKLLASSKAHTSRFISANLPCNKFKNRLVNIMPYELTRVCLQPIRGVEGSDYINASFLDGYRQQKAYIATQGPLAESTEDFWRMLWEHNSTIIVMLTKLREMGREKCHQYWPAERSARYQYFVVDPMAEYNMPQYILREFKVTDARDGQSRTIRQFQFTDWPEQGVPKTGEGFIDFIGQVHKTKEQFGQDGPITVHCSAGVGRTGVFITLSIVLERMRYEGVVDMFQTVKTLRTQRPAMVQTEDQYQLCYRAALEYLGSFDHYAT

| Compound | inhibition [1] | inhibition [2] | inhibition [3] |
| --- | --- | --- | --- |
| CCCCCNC(=O)C(Cc1ccc(OC(C(=O)O)C(=O)O)cc1)NC(=O)COCC(=O)O (stereo not given) | 5% | 53% | 8% |
| CC(C)CC(CO)NC(=O)C(Cc1ccc(OC(C(=O)O)C(=O)O)cc1)NC(=O)CCC(=O)O (stereo not given) | 0% | 57% | 10% |
| CCCCCNC(=O)C(Cc1ccc(OCC(=O)O)c(C(N)=O)c1)NC(=O)CCC(=O)O (stereo not given) | 0% | 11% | 1% |
| O=C(O)CCC(=O)NC(Cc1ccc(OC(C(=O)O)C(=O)O)cc1)C(=O)NCc1ccc(C(=O)O)cc1 (stereo not given) | 2% | 56% | 58% |
| CCCCCCCCCCNC(=O)C(Cc1ccc(OC(C(=O)O)C(=O)O)cc1)NC(=O)CCC(=O)O (stereo not given) | 4% | 51% | 9% |
| CCCCCNC(=O)C(Cc1ccc(C=C(C(=O)O)C(=O)O)cc1)NC(=O)CCC(=O)O (stereo not given) | 2% | 33% | 52% |
| CCCCCNC(=O)C(Cc1ccc(OC(C(=O)O)C(=O)O)cc1)NC(=O)[C@H](Cc1ccc(OC)cc1)NC(=O)CCC(=O)O (stereo not given in full) | 22% | 98% | 33% |
| CCCCCNC(=O)C(Cc1ccc(OC(=O)CC(=O)O)cc1)NC(=O)CCC(=O)O (stereo not given) |  | 2% | 0% |
| CCCCCNC(=O)C(Cc1ccc(OC(C(=O)O)C(=O)O)cc1)NC(=O)[C@H](CC(=O)O)NC(=O)OCc1ccccc1 (stereo not given in full) | 6% | 90% | 50% |
| CCCCCNC(=O)C(Cc1ccc(O/C(=C/C(=O)O)C(=O)O)cc1)NC(=O)CCC(=O)O (stereo not given) |  | 50% | 5% |
| CCCCCNC(=O)C(Cc1ccc(OS(=O)(=O)C(F)(F)F)cc1)NC(=O)CCC(=O)O (stereo not given) |  | 0% |  |
| CCCCCNC(=O)C(Cc1ccc(OC(C(=O)O)C(=O)O)cc1)NC(=O)[C@H](COc1ccc(Cc2cc(Cl)ccc2Cl)cc1)NC(=O)OC(C)(C)C (stereo not given in full) | 27% | 85% | 45% |
| CCCCCNC(=O)C(Cc1ccc(OCC(=O)O)cc1)NC(=O)CCC(=O)O (stereo not given) | 0% | 14% | 0% |
| CCCCCNC(=O)C(Cc1ccc(OC(C(=O)O)C(=O)O)cc1)NC(=O)[C@H](Cc1ccc(C(=O)c2ccccc2)cc1)NC(=O)OC(C)(C)C (stereo not given in full) | 24% | 91% | 11% |
| CCCCCNC(=O)[C@@H](Cc1ccc(OC(C(=O)O)C(=O)O)cc1)NC(=O)CCC(=O)O | 1% | 39% | 4% |
| CCCCCNC(=O)C(Cc1ccc(OC(CC(=O)O)C(=O)O)cc1)NC(=O)CCC(=O)O (stereo not given) |  | 34% | 4% |
| O=C(O)CCC(=O)NC(Cc1ccc(OC(C(=O)O)C(=O)O)cc1)C(=O)NCC1CCCCC1 (stereo not given) | 5% | 73% | 12% |
| O=C(O)CCC(=O)NC(Cc1ccc(OC(C(=O)O)C(=O)O)cc1)C(=O)NCCOc1ccccc1 (stereo not given) | 4% | 57% | 34% |
| CC(C)CCNC(=O)C(Cc1ccc(OC(C(=O)O)C(=O)O)cc1)NC(=O)CCC(=O)O (stereo not given) | 5% | 48% | 7% |
| CCCCCNC(=O)C(Cc1ccc(OC(C(=O)O)C(=O)O)cc1)NC(=O)[C@H]1C[C@@H]1C(=O)O (stereo not given in full) | 6% | 57% | 10% |
| CCCCCNC(=O)C(Cc1ccc(OC(C(=O)O)C(=O)O)cc1)NC(=O)[C@H](CC(=O)O)NC(=O)CCCCC (stereo not given in full) | 10% | 91% | 37% |
| CCCCCNC(=O)[C@H](Cc1ccc(OC(C(=O)O)C(=O)O)cc1)NC(=O)[C@@H](Cc1ccc(C(=O)c2ccccc2)cc1)NC(=O)CCC(=O)O | 6% | 54% | 11% |
| CCCCNC(=O)C(Cc1ccc(OC(C(=O)O)C(=O)O)cc1)NC(=O)CCC(=O)O (stereo not given) | 5% | 37% | 1% |
| O=C(O)CCC(=O)NC(Cc1ccc(OC(C(=O)O)C(=O)O)cc1)C(=O)NCc1ccc2c(c1)OCO2 (stereo not given) | 6% | 63% | 12% |
| CCCCCNC(=O)C(Cc1ccc(CC(C(=O)O)C(=O)O)cc1)NC(=O)CCC(=O)O (stereo not given) | 3% | 34% | 3% |

| Compound | inhibition [1] | inhibition [2] | inhibition [3] |
| --- | --- | --- | --- |
| CCCCCNC(=O)C(Cc1ccc(OC(C(=O)O)C(=O)O)cc1)NC(=O)[C@H](CC(=O)O)NC(=O)OC(C)(C)C (stereo not given in full) | 10% | 90% | 12% |
| CCCCCNC(=O)C(Cc1ccc(OC(C(=O)O)C(=O)O)cc1)NC(=O)C1C2CCC(C2)[C@@H]1C(=O)O (stereo not given in full) | 8% | 37% | 5% |
| CCCCCCNC(=O)C(Cc1ccc(OC(C(=O)O)C(=O)O)cc1)NC(=O)CCC(=O)O (stereo not given) | 5% | 74% | 8% |
| CCCCCNC(=O)C(Cc1ccc(OC(C(=O)O)C(=O)O)cc1)NC(=O)[C@H]1CCCC[C@@H]1C(=O)O (stereo not given in full) | 7% | 72% | 10% |
| CCCCCNC(=O)C(CCc1ccc(OC(C(=O)O)C(=O)O)cc1)NC(=O)CCC(=O)O (stereo not given) | 0% | 18% | 10% |
| CCOC(CNC(=O)C(Cc1ccc(OC(C(=O)O)C(=O)O)cc1)NC(=O)CCC(=O)O)OCC (stereo not given) | 3% | 46% | 11% |
| CCCCCNC(=O)C(Cc1ccc(OC(C(=O)O)C(=O)O)c(F)c1)NC(=O)CCC(=O)O (stereo not given) | 4% | 78% | 9% |
| CCCCCNC(=O)C(Cc1ccc(OC(C(=O)O)C(=O)O)cc1)NC(=O)[C@H](CCC(=O)O)NC(=O)CCC(=O)O (stereo not given in full) | 10% | 96% | 28% |
| CCCCCNC(=O)C(Cc1ccc(OC(C(=O)O)C(=O)O)cc1)NC(=O)CCC(N)=O (stereo not given) |  | 51% |  |
| O=C(O)CCC(=O)NC(Cc1ccc(OC(C(=O)O)C(=O)O)cc1)C(=O)NCCCc1ccccc1 (stereo not given) | 6% | 72% | 12% |
| CCCCCNC(=O)C(Cc1ccc(OC(C(=O)O)C(=O)O)cc1)NC(=O)CCC(=O)OCc1ccccc1 (stereo not given) |  | 39% |  |
| CCCCCNC(=O)C(Cc1ccc(OC(C(=O)O)C(=O)O)cc1)NC(=O)CC1(CC(=O)O)CCCC1 (stereo not given) | 9% | 72% | 18% |
| CCCCCNC(=O)C(Cc1ccc(OC(C(=O)O)C(=O)O)c(F)c1F)NC(=O)CCC(=O)O (stereo not given) | 12% | 85% | 23% |
| CCCCCNC(=O)C(Cc1ccc(OC(C(=O)OCC)C(=O)OCC)cc1)NC(=O)CCC(=O)O (stereo not given) |  | 1% | 0% |
| CCCCCNC(=O)C(Cc1ccc(OC(C(=O)O)C(=O)O)cc1)NC(=O)CCCC(=O)O (stereo not given) | 7% | 67% | 10% |
| CCCCCNC(=O)C(Cc1ccc(O)c(C(=O)O)c1)NC(=O)CCC(=O)O (stereo not given) | 0% | 0% | 3% |
| CCCCCNC(=O)C(Cc1ccc(OC(C(=O)O)C(=O)O)cc1)NC(=O)CC(C)(C)CC(=O)O (stereo not given) | 6% | 67% | 16% |
| CCCCCNC(=O)C(Cc1ccc(OC(C(=O)O)C(=O)O)cc1)NC(=O)[C@H](Cc1ccc(OC)cc1)NC(=O)OC(C)(C)C (stereo not given in full) | 30% | 90% | 9% |
| CCCCCNC(=O)C(Cc1ccc(OS(C)(=O)=O)cc1)NC(=O)CCC(=O)O (stereo not given) |  | 0% |  |
| O=C(O)CCC(=O)NC(Cc1ccc(OC(C(=O)O)C(=O)O)cc1)C(=O)NCCC(c1ccccc1)c1ccccc1 (stereo not given) | 11% | 45% | 9% |
| CCCCCNC(=O)C(Cc1ccc(OC(C(=O)O)C(=O)O)cc1)NC(=O)c1ccccc1C(=O)O (stereo not given) | 10% | 63% | 19% |
| O=C(O)CCC(=O)NC(Cc1ccc(OC(C(=O)O)C(=O)O)cc1)C(=O)NCc1cccc2ccccc12 (stereo not given) | 10% | 61% | 12% |
| CCCCC(N)C(=O)NC(=O)C(Cc1ccc(OC(C(=O)O)C(=O)O)cc1)NC(=O)CCC(=O)O (stereo not given) | 4% | 93% | 48% |
| O=C(O)CCC(=O)NC(Cc1ccc(OC(C(=O)O)C(=O)O)cc1)C(=O)NCCc1ccc(O)cc1 (stereo not given) |  | 43% |  |
| O=C(O)CCC(=O)NC(Cc1ccc(OC(C(=O)O)C(=O)O)cc1)C(=O)NCCN1CCCCC1 (stereo not given) |  | 23% | 1% |

From ChEMBL document CHEMBL1135703, “Synthesis and biological activity of a novel class of small molecular weight peptidomimetic competitive inhibitors of protein tyrosine phosphatase 1B” (2002)
